In patent US11220504B2, “Pyrrolo[3,2-d] pyrimidine derivatives for the treatment of viral infections and other diseases” (JANSSEN SCIENCES IRELAND UNLIMITED COMPANY, priority 2012, dated 2022):

What was measured:
human TLR7 = molecular target: T1, human TLR7 (Homo sapiens, UniProt Q9NYK1); assay: TLR7 cellular reporter assay (HEK293, NFκB-luc); type: cell-based; conditions: HEK293 cells transfected with CMV-TLR7 and NFκB-luc, 6 hours incubation; lowest effective concentration
T1 construct: expressed in transfected cells; host or cells: HEK293 cells, transient transfection with CMV-TLR7 plasmid and NFκB-luc plasmid
T1 sequence (Q9NYK1 27-1049): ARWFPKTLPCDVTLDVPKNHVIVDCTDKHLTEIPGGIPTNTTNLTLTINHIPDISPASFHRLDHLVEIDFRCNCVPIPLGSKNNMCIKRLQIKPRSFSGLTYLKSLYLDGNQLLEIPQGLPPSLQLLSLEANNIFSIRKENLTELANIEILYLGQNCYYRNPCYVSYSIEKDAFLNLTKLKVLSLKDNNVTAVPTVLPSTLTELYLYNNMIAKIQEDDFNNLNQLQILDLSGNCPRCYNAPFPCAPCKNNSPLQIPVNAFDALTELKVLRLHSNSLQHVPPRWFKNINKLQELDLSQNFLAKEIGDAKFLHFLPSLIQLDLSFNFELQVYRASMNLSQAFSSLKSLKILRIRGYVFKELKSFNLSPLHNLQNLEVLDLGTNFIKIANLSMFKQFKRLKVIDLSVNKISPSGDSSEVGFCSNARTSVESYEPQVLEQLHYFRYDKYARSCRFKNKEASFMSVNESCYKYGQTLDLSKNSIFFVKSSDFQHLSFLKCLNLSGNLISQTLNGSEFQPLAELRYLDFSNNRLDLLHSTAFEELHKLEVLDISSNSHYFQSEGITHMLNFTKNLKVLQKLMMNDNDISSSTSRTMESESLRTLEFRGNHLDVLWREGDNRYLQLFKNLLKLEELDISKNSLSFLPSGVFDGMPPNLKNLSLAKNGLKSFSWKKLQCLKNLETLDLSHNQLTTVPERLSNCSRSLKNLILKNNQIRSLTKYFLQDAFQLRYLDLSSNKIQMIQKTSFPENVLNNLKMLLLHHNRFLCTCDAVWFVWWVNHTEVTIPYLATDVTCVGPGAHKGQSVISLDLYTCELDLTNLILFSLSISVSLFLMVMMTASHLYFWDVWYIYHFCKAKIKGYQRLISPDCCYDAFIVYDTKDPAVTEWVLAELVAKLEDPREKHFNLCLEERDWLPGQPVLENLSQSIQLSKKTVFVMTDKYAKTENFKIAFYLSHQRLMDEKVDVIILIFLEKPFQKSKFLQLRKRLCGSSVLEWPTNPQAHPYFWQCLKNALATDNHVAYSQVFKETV
Method: (§1) The ability of compounds to activate human TLR7 and/or TLR8 was assessed in a cellular reporter assay using HEK293 cells transiently transfected with a TLR7 or TLR8 expression vector and NFκB-luc reporter construct.
(§2) Briefly, HEK293 cells were grown in culture medium (DMEM supplemented with 10% FCS and 2 mM Glutamine). […] Thirty microliters of cells were then dispensed into each well in 384-well plates, where 10 μL of compound in 4% DMSO was already present. Following 6 hours incubation at 37° C., 5% CO2, the luciferase activity was determined by adding 15 μL of Steady Lite Plus substrate (Perkin Elmer) to each well and readout performed on a ViewLux ultraHTS microplate imager (Perkin Elmer). Dose response curves were generated from measurements performed in quadruplicates.

human TLR8 = molecular target: T2, human TLR8 (Homo sapiens, UniProt Q9NR97); assay: TLR8 cellular reporter assay (HEK293, NFκB-luc); type: cell-based; conditions: HEK293 cells transfected with CMV-TLR8 and NFκB-luc, 6 hours incubation; lowest effective concentration
T2 construct: expressed in transfected cells; host or cells: HEK293 cells, transient transfection with TLR8 plasmid and NFκB-luc plasmid
T2 sequence (Q9NR97 27-1041): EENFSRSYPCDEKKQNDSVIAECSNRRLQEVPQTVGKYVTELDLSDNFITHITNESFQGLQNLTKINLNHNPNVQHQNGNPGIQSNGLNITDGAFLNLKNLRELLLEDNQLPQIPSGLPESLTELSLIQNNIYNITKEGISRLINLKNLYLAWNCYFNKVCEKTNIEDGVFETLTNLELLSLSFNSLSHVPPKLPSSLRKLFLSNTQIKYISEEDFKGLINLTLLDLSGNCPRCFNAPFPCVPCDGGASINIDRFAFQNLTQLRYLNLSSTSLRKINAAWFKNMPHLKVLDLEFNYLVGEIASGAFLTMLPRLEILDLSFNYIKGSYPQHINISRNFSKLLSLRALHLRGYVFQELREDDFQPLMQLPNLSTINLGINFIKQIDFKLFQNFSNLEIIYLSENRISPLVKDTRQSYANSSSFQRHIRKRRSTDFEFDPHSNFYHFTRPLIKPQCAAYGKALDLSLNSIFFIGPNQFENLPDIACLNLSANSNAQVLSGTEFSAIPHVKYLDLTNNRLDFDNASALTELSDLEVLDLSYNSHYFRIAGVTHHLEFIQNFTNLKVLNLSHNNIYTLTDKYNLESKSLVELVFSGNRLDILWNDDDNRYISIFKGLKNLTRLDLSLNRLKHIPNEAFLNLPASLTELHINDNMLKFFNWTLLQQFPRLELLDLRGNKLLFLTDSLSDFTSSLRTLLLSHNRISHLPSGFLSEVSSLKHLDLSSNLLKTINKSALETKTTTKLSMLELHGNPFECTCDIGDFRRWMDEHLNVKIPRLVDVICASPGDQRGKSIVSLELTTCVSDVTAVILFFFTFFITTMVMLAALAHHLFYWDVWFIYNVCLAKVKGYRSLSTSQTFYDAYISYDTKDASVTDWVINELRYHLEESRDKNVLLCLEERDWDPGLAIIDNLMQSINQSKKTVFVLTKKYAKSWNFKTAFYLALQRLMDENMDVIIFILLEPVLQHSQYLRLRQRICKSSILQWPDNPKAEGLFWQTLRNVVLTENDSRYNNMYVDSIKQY
Method: as §1, §2

[1] = system: interferon-stimulated responsive elements (ISRE); assay: Activation of ISRE promoter elements by conditioned media from PBMC (HEK-ISREluc); type: cell-based, human; conditions: Homo sapiens; conditioned media from PBMC transferred to HEK-ISREluc cells, 24 hours; lowest effective concentration; read-out: PBMC LEC
Method: The potential of compounds to induce IFN-I was also evaluated by measuring the activation of interferon-stimulated responsive elements (ISRE) by conditioned media from PBMC. The ISRE element of sequence […] (SEQ. ID NO:1) is highly responsive to the STAT1-STAT2-IRF 9 transcription factor, activated upon binding of IFN-I to their receptor IFNAR (Clontech, PT3372-5W). […] A HEK293 cell line stably transfected with pISRE-Luc (HEK-ISREluc) was established to profile of the conditioned PBMC cell culture media.
Briefly, PBMCs were prepared from buffy coats of at least two donors using a standard Ficoll centrifugation protocol. Isolated PBMCs were resuspended in RPMI medium supplemented with 10% human AB serum and 2×10^5 cells/well were dispensed into 384-well plates containing compounds (70 μL total volume). After overnight incubation, 10 μL of supernatant was transferred to 384-well plates containing 5×10^3 HEK-ISREluc cells/well in 30 μL (plated the day before). Following 24 hours of incubation, activation of the ISRE elements was measured by assaying luciferase activity using 40 μL/well Steady Lite Plus substrate (Perkin Elmer) and measured with ViewLux ultraHTS microplate imager (Perkin Elmer). The stimulating activity of each compound on the HEK-ISREluc cells was reported as LEC value, defined as the compound concentration applied to the PBMCs resulting in a luciferase activity at least two fold above the standard deviation of the assay. The LEC in turn indicates the degree of ISRE activation on transfer of a defined amount of PBMC culture medium. Recombinant interferon α-2a (Roferon-A) was used as a standard control compound.

Row | Structure (SMILES) | TLR7 LEC (human TLR7) [µM] | TLR8 LEC (human TLR8) [µM] | minimal effective concentration [1] [µM]
1 | CCCCNc1nc(N)nc2ccn(CCOC)c12 [Compound 4] | 0.60 | 13.5 | 0.4
2 | CCCCNc1nc(N)nc2ccn(Cc3cccc(F)c3)c12 [Compound 5] | 0.30 | >25 | 0.2
3 | CCCCNc1nc(N)nc2ccn(Cc3ccccc3Br)c12 [Compound 6] | 1.3 | >25 | 0.7
4 | CCCCNc1nc(N)nc2ccn(Cc3ccccc3-c3ccccc3)c12 [Compound 7] | 0.61 | >25 | 0.8
5 | CCCCNc1nc(N)nc2ccn(CCCC)c12 [Compound 8] | 0.49 | 1.7 | 0.15
6 | CCCCNc1nc(N)nc2ccn(CCC)c12 [Compound 9] | 0.53 | 2.1 | 0.22
7 | CCCCNc1nc(N)nc2ccn(CCc3ccccc3)c12 [Compound 11] | 1.5 | 3.5 | 0.56
8 | CCCCNc1nc(N)nc2ccn(Cc3ccccc3Cl)c12 [Compound 13] | 0.80 | >25 | 0.89
9 | CCCC[C@@H](CO)Nc1nc(N)nc2ccn(Cc3cccnn3)c12 [Compound 14] | 0.52 | 6.57 | 0.01
10 | CCC[C@@H](CO)Nc1nc(N)nc2ccn(Cc3cccnn3)c12 [Compound 15] | 5.84 | >25 | 0.1
11 | CCCCNc1nc(N)nc2ccn(Cc3ccc(F)c(Cl)c3)c12 [Compound 16] | 0.89 | >25 | 0.6
12 | CCC[C@@H](CO)Nc1nc(N)nc2ccn(Cc3ccccc3)c12 [Compound 17] | 0.07 | 12.5 | 0.01
13 | CCCCNc1nc(N)nc2ccn(C(C)C)c12 [Compound 19] | 2.5 | 7.06 | 0.62
14 | CCCCNc1nc(N)nc2ccn(Cc3cc(C)on3)c12 [Compound 20] | 0.14 | 1.3 | 0.02
15 | CCC[C@@H](CCO)Nc1nc(N)nc2ccn(Cc3ccccc3)c12 [Compound 21] | 0.009 | 7.4 | 0.0007
16 | CCC[C@@H](CO)Nc1nc(N)nc2ccn(Cc3ccccn3)c12 [Compound 22] | 0.48 | 9.2 | 0.02
17 | CCCNc1nc(N)nc2ccn(Cc3ccccc3)c12 [Compound 23] | 0.83 | >25 | 0.27
18 | CCC[C@@H](CCO)Nc1nc(N)nc2ccn(Cc3ccccn3)c12 [Compound 24] | 0.02 | 6.47 | 0.0007
19 | CCCC[C@@H](CCO)Nc1nc(N)nc2ccn(Cc3ccccn3)c12 [Compound 25] | 0.01 | 2.84 | 0.001
20 | CCC[C@@H](CO)Nc1nc(N)nc2ccn(CC(C)C)c12 [Compound 27] | 0.15 | 0.85 | 0.17
21 | CCCC[C@@H](CCO)Nc1nc(N)nc2ccn(CC(C)C)c12 [Compound 28] | 0.11 | 1.1 | 0.03
22 | CCCCCNc1nc(N)nc2ccn(Cc3ccccc3)c12 [Compound 29] | 0.15 | >25 | 0.04
23 | CCC[C@@H](CCO)Nc1nc(N)nc2ccn(CC(C)C)c12 [Compound 30] | 0.16 | 0.67 | 0.05
